According to patent US10512627B2, “Anti-tumor compound and the medical use thereof” (Tianjin Medical University Cancer Institute and Hospital, priority 2014, dated 2019):

What was measured:
[1] = Acute toxicity assay in mice, oral administration (Example 10); conditions: both sexes, mouse, in vivo, 5000 mg/kg; oral administration, Kunming mice
Experimental: (§1) The medium lethal dose of (S)2-(4′-methyl-3′-nitrobenzoylamino)-3-phenylpropionic acid via oral administration was tested by acute toxicity assay in mice.
(§2) 1) Mice grouping: Kunming mice of clean grade, 10 weeks old, 30˜40 g body weight, 5 mice for each group, and all of the mice were males or females.
(§3) 2) 3.2 g (S)2-(4′-methyl-3′-nitrobenzoylamino)-3-phenylpropionic acid was added to 8 mL solution of 3% sodium carboxymethylcellulose solution, and the mixture was homogenated for 5 min at 30000 rpm with a homogenizer. Each mouse undergone administration of intragastric infusion with 0.5 ml at a dosage of 5000 mg/kg. […] If the death number was […], the LD50 was regarded as more than 5000 mg/kg; if the death number equals to or was more than 3, the main experiments will be performed. The experiment was repeated for 3 times and the result was recorded as follows: […]

[2] = system: Kunming mice; test: as above; conditions: Kunming, mouse, in vivo, 14 days
Experimental: as §1, §2, §3

[3] = system: human breast cancer cell MDA-MB-231; test: Transwell invasion assay through Matrigel (Example 5); type: cell-based
Experimental: The inhibiting ability of (S)2-(4′-methyl-3′-nitrobenzoylamino)-3-phenylpropionic acid for the invasion of human breast cancer cell MDA-MB-231 was tested by Transwell invasion assay.
1) Gel placement into the Transwell chamber: Matrigel was melted under ice-bath of 4° C. overnight, and diluted with pre-cooled serum free DMEM medium at a ratio of 1:3. Transwell chamber was put in the 24-well plate, and 50 μL gel solution was added per chamber, stayed at 37° C. for 1 h, then 200 μL serum free DMEM medium was added and stayed for 15 min to make the gel reconstitute, and finally the medium was removed for stand-by;
2) MDA-MB-231 cells in logarithmic growth phase were plated in 6-well plate with the density of 1×10^6/3 mL, and after 12 h, the drug was added, with 100 μL per well. The final concentrations of (S)2-(4′-methyl-3′-nitrobenzoylamino)-3-phenylpropionic acid were 1, 2, and 4 μmol/L, respectively. The negative control was 100 μL sterilized water with 2% DMSO and the positive control was 1 μmol/L 4-methyl-3-nitrobenzoic acid. After 12 h, the medium was removed, followed by washing 3 times with PBS, and 3 ml medium without fetal bovine serum and 100 μL drug (concentration is as above) per well were added. […] The cell number was counted and the cells were seeded at the density of 2×10^5/200 μL into the Transwell chamber with the Matrigel. […]

[4] = system: human breast cancer cell MDA-MB-231; test: Scratch assay, migration of MDA-MB-231 (Example 3); type: cell-based; conditions: 0.5, 1, 2, 4 μmol/L, 0-24 h
Experimental: The inhibiting ability of (S)2-(4′-methyl-3′-nitrobenzoylamino)-3-phenylpropionic acid for the migration of human breast cancer cell MDA-MB-231 was tested by scratch assay.
The MDA-MB-231 cells in logarithmic growth phase were plated in the 6-well plate with the density of 1×10^6/3 mL, and the drug was added after 12 h, with 100 μL per well. The final concentrations of (S)2-(4′-methyl-3′-nitrobenzoylamino)-3-phenylpropionic acid (TCI04) were 0.5, 1, 2, and 4 μmol/L, respectively. The negative control was 100 μL sterilized water with 2% DMSO and the positive control was 1 μmol/L 4-methyl-3-nitrobenzoic acid (TCI01). After 12 h, the culture medium was removed, and the plate was washed 3 times with PBS, and 3 ml culture medium without fetal bovine serum and 100 μL drug (concentration was the same as above) per well were added. 12 h later, 10 μL tips were used to scratch, and after washing 4 times with PBS, 3 ml culture medium without fetal bovine serum per well was added. The distance of cell migration was recorded every 3 h under the inverted microscope, and the photos were taken at 0 h and 24 h.

[5] = system: MDA-MB-231 cells; test: MTT assay, proliferation of MDA-MB-231 (Example 11); type: cell-based; conditions: Homo sapiens, 48 h
Experimental: The half inhibitory concentration of (S)2-(4′-methyl-3′-nitrobenzoylamino)-3-phenylpropionic acid for MDA-MB-231 cells was tested by MTT assay.
2) 5 mg/mL MTT solution was prepared with sterilized PBS, filtered with 0.22 um film, and then diluted with medium to 1 mg/mL. The medium in the 96-well plate was discarded, and 100 μL 1 mg/mL MTT working solution was add, followed by continuous culturing for 5 h.
3) MTT working solution was discarded, and 150 μL DMSO was added to each well (note: to away from light), and then the plate was shaken on the horizontal shaker at 170 rpm for 10 min, followed by detecting the absorbance at 490 nm with microplate reader.

With `Cc1ccc(C(=O)N[C@@H](Cc2ccccc2)C(=O)O)cc1[N+](=O)[O-]` [(S)2-(4′-methyl-3′-nitrobenzoylamino)-3-phenylpropionic acid] the LD50 at 14 days [1] was greater than 5000 mg/kg, the “Death number, Female mice, The first test” value ([2]; female) was 2 and the “Death number, Female mice, The second test” value ([2]; female) was 2. For the same compound, the “Death number, Female mice, The third test” value ([2]; female) was 1, the “Death number, Male mice, The first test” value ([2]; male) was 2 and the “Death number, Male mice, The second test” value ([2]; male) was 1. For the same compound, the “Death number, Male mice, The third test” value ([2]; male) was 1, the “invaded cell number compared to the negative control” value ([3]; 1, 2, 4 μmol/L, 24 h, P<0.01) was “significantly less than the negative control” and the “invaded cell number compared to the positive control (1 μmol/L 4-methyl-3-nitrobenzoic acid)” value ([3]; 2, 4 μmol/L, P>0.05) was “no significant difference”. For the same compound, the “inhibition of migration ability (coalescence speed of cell scratch vs negative control)” value [4] was “significantly inhibited” and the IC50 [5] was 2.45 mM.
